Here are results for 7 compounds from patent publication US20110268653A1, “Compositions and Methods Related to Acid Stable Lipid Nanospheres” (The Board of Regents of the University of Texas System, priority 2010, published 2011).

SMILES strings stand for the structures.

Usually melting point stands for the temperature of the solid-liquid transition.

In the case of `CCCCCCCCCCCCCCCCCC(=O)N1C(CCCCCCCCCCC)NC(=O)CC1C(=O)O` (stereo not shown) [Lipid 1e, 6-Oxo-3-stearoyl-2-undecylhexahydropyrimidine-4-carboxylic acid], the melting point was in the range of 105 to 109 °C.
The compound `CCCCCCCCCCCCCCCCCC1NC(=O)CC(C(=O)O)N1C(=O)CCCCCCCCCCC` (stereo not shown) [Lipid 1f, 3-Dodecanoyl-2-heptadecyl-6-oxohexahydropyrimidine-4-carboxylic acid] gave a melting point of 104 to 107 °C.
In the case of `CCCCCCCCCCCC(=O)N1C(CCCCC)NC(=O)CC1C(=O)O` (stereo not shown) [Lipid 1b, 3-Dodecanoyl-6-oxo-2-pentylhexahydropyrimidine-4-carboxylic acid] it was 118 to 120 °C.
In turn, `CCCCCCCCCCCC1NC(=O)CC(C(=O)O)N1C(=O)CCCCC` (stereo not shown) [Lipid 1c, 3-Hexanoyl-6-oxo-2-undecylhexahydropyrimidine-4-carboxylic acid] yielded a melting point of 106 to 107 °C.
`CCCCCCCCCCCC(=O)N1C(CCCCCCCCCCC)NC(=O)CC1C(=O)O` (stereo not shown) [Lipid 1d, 3-Dodecanoyl-6-oxo-2-undecylhexahydropyrimidine-4-carboxylic acid] registered a melting point of 110 to 112 °C.
On to `CCCCCC(=O)N1C(CCCCC)NC(=O)CC1C(=O)O` (stereo not shown) [Lipid 1a, 3-Hexanoyl-6-oxo-2-pentylhexahydropyrimidine-4-carboxylic acid], for which the melting point was 55 to 56 °C.
Regarding `CCCCCCCCCCCCCCCCCC(=O)N1C(CCCCCCCCCCCCCCCCC)NC(=O)CC1C(=O)O` (stereo not shown) [ALA17, 17, 2-Heptadecyl-6-oxo-3-stearoylhexahydropyrimidine-4-carboxylic acid], the melting point was in the range of 107 to 111 °C.
